According to ChEMBL document CHEMBL6121064, “Recent Developments in 14-3-3 Stabilizers for Regulating Protein-Protein Interactions: An Update” (J Med Chem, 2025):

Assays:
[1] = target: T1, 14-3-3 protein beta/alpha (Homo sapiens, UniProt P31946)
T1 sequence (P31946 whole entry): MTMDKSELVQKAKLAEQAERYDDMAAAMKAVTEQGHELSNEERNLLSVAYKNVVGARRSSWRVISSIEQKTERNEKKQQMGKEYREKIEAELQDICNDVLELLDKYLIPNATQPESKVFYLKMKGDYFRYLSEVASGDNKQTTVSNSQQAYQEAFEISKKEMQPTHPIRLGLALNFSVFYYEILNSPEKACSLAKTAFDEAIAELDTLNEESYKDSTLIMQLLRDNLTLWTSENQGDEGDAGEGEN

HL-60 = test: cells; settings: Homo sapiens, HL-60, 72 h
[2] = target: T1, 14-3-3 protein beta/alpha; remark: listed apart in the source
Estrogen receptor = target: T2, Estrogen receptor (Homo sapiens, UniProt P03372); test: Inhibition of ERalpha (unknown origin)
T2 sequence (P03372 whole entry): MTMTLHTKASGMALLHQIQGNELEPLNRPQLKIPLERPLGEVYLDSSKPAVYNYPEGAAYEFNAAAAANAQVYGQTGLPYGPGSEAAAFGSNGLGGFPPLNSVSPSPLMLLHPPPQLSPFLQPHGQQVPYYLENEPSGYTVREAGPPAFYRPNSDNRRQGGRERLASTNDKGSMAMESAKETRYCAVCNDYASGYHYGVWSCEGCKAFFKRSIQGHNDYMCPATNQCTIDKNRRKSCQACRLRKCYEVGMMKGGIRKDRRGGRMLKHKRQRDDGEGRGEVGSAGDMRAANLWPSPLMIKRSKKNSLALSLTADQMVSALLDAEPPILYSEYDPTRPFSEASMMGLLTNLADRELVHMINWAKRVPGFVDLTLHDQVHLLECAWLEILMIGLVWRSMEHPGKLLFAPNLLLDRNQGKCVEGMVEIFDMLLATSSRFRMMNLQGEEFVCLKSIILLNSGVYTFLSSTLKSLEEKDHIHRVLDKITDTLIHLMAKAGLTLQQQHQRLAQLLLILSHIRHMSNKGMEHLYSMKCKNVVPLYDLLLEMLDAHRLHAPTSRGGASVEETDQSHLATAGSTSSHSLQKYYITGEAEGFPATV

[3] = target: RAF proto-oncogene serine/threonine-protein kinase (Homo sapiens, UniProt P04049); test: Inhibition of C-RAF (unknown origin)
MIA PaCa-2 = test: cells; settings: Homo sapiens, MIA PaCa-2, 48 h

RAF proto-oncogene serine/threonine-protein kinase, sequence (P04049 whole entry): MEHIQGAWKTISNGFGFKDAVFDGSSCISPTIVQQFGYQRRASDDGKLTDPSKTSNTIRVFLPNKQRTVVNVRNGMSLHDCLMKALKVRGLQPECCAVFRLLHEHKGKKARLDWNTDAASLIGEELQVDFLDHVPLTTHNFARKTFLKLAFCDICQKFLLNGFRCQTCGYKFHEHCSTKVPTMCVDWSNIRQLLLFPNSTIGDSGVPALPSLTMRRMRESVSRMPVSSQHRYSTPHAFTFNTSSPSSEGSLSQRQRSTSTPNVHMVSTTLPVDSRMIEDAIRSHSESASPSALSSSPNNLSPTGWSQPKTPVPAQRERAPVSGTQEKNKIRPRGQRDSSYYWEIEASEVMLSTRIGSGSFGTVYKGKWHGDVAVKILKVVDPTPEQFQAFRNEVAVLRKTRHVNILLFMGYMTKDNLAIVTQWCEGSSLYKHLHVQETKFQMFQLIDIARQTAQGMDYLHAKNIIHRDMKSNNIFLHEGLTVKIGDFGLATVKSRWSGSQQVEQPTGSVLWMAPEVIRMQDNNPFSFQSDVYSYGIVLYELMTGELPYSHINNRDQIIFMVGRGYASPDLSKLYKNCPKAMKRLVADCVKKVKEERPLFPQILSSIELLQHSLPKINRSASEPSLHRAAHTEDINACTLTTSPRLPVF

| Structure (SMILES) | IC50 (Estrogen receptor) [µM] | IC50 [3] [µM] | also measured |
| --- | --- | --- | --- |
| O=Cc1ccc(-n2ccnc2-c2ccc(F)cc2F)cc1Br | – | – | IC50 [1]: 250 µM |
| COC[C@H]1CC[C@@H]2/C1=C\[C@@]1(C)CCC(C(C)C)=C1C(O[C@@H]1O[C@@H](CNCc3ccccc3)[C@H](O)[C@@H](O)[C@@H]1O)[C@H](O)[C@@H]2C (stereo partly drawn) | – | – | IC50 (HL-60): 0.25 µM |
| N=C(N)c1cc(-c2cccc(NC(=O)C3(Oc4ccc(Cl)cc4)CCC(N)CC3)c2)cs1 (stereo not drawn) | – | – | IC50 [2]: 151 µM |
| CC(C)CC(NC(=O)[C@H](O)[C@H](N)Cc1ccccc1)C(=O)O (stereo partly drawn) | 1.8 | – | – |
| CN(C)CCSSCCNC(=O)C1CCCN(C(=O)c2ccc(Oc3ccccc3)cc2)C1 (stereo not drawn) | 426 | 426 | – |
| NCCCNCCS [WR-1065] | 2.8 | – | – |
| CN(C)CCSSCCC(=O)N1CCC(O)(c2cccc(C(F)(F)F)c2)CC1 | – | 77 | – |
| COC[C@H]1CC[C@@H]2/C1=C\[C@@]1(C)CCC(C(C)C)=C1C(O[C@@H]1O[C@H]3COC(C)(C)O[C@@H]3[C@@H](O)[C@@H]1O)[C@H](O)[C@@H]2C (stereo partly drawn) | – | – | IC50 (MIA PaCa-2): 18 µM |
| CN(C)CCSSCCNC(=O)C1CCN(C(=O)C(C)(C)Oc2ccc(Cl)cc2)CC1 | 19 | 81 | – |

Second part, led by results:

| IC50 (Estrogen receptor) [µM] | IC50 [3] [µM] | Structure (SMILES) | also measured |
| --- | --- | --- | --- |
| 80 | – | O=C(C1=C(O)C(=O)N(c2ccc(O)c(C(=O)O)c2)C1c1ccc([N+](=O)[O-])cc1)c1ccccc1 (stereo not drawn) | – |
| – | 246 | COc1ccc2cc([C@H](C)C(=O)N3CCC(C(=O)NCCSSCCN(C)C)CC3)ccc2c1 | – |
